# Target: T1, Pf2001Δ60 (recombinant thermostable lipase Pf2001) (Pyrococcus furiosus, UniProt Q8TZJ1)
# T1 construct: expressed in E. coli BL21 (DE3) pLysS; crude extract supernatant
# Assay: fluorescence release of 4-methylumbelliferone (ex […] nm, em […] nm)
# Type: biochemical
# Settings: crude extract of E. coli expressing the enzyme; pH 7.0, 50 mM sodium phosphate, 0.1% gum arabic, 70 °C; soluble enzyme (also measured immobilised)
# T1 sequence (Q8TZJ1 entry or part of it, stated change not applied): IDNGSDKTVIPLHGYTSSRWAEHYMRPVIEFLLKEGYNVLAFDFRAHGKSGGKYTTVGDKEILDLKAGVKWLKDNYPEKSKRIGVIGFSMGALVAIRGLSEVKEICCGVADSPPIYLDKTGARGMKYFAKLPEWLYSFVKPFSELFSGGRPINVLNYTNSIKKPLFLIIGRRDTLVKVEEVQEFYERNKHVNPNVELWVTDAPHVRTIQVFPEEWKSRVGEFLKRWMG
compound,measurement,value
CCCCCCC(=O)Oc1ccc2c(C)cc(=O)oc2c1 [4-Methylumbelliferyl-heptanoate],"fluorescence release of 4-methylumbelliferone (ex 323 nm, em 448 nm)",Enzyme activity was measured according to the method described by Prim et al.
